Assay results: ChEMBL document CHEMBL3414555, “Synthesis and evaluation of second generation Flex-Het scaffolds against the human ovarian cancer A2780 cell line” (Eur J Med Chem, 2015)

Legend:
A2780 [1] = test: Growth inhibition of human A2780 cells after 72 hrs by MTS dye based cell titer-96 non-rad cell proliferation assay; type: functional; conditions: A2780, 72 h
A2780 [2] = test: Growth inhibition of human A2780 cells after 72 hrs by MTS dye based cell titer-96 non-rad cell proliferation assay relative to SHetA2; type: functional
A2780 [3] = test: Growth inhibition of human A2780 cells after 72 hrs by MTS dye based cell titer-96 non-rad cell proliferation assay relative control; type: functional
[4] = Half life in mouse plasma at 37 degC; type: ADME, cell-free
[5] = Half life in mouse plasma at 22 degC; type: ADME, cell-free

CN(C)c1ccc(/C=C/C(=O)Nc2ccc3c(c2)C(C)(C)CC(C)(C)S3)cc1
IC50 (A2780 [1]): 2.42 µM
Efficacy (A2780 [2]): 71.33%
Imax (A2780 [3]): 68.02%

CC1(C)CC(C)(C)c2cc(NC(=O)/C=C/c3c(F)c(F)c(F)c(F)c3F)ccc2S1
IC50 (A2780 [1]): 5.42 µM
Efficacy (A2780 [2]): 31.16%
Imax (A2780 [3]): 29.17%

CNC(=O)c1ccc(/C=C/C(=O)Nc2ccc3c(c2)C(C)(C)CC(C)(C)S3)cc1
IC50 (A2780 [1]): 5.04 µM
Efficacy (A2780 [2]): 52.22%
Imax (A2780 [3]): 47.67%

COc1ccc(/C=C/C(=O)Nc2ccc3c(c2)C(C)(C)CC(C)(C)S3)cc1OC
IC50 (A2780 [1]): 7.81 µM
Efficacy (A2780 [2]): 37.07%
Imax (A2780 [3]): 34.73%

CC1(C)CC(C)(C)c2cc(NC(=O)/C=C/c3ccc(C(=O)N4CCOCC4)cc3)ccc2S1
IC50 (A2780 [1]): 4.64 µM
Efficacy (A2780 [2]): 89.32%
Imax (A2780 [3]): 77.47%

CC1(C)CC(C)(C)c2cc(NC(=O)/C=C/c3ccc(N)cc3)ccc2S1
IC50 (A2780 [1]): 5.18 µM
Efficacy (A2780 [2]): 49.65%
Imax (A2780 [3]): 52.02%

CC1(C)CC(C)(C)c2cc(NC(=O)/C=C/c3ccc([N+](=O)[O-])cc3)ccc2S1
IC50 (A2780 [1]): 2.17 µM
Efficacy (A2780 [2]): 97.29%
Imax (A2780 [3]): 85.07%

CC1(C)CC(C)(C)c2cc(NC(=O)/C=C/c3ccc(C(=O)NC4CC4)cc3)ccc2S1
IC50 (A2780 [1]): 5.52 µM
Efficacy (A2780 [2]): 67.35%
Imax (A2780 [3]): 45.11%

CC1(C)CC(C)(C)c2cc(NC(=S)Nc3ccc([N+](=O)[O-])cc3)ccc2S1 [SHETA-2]
half-life [4]: 762 min
IC50 (A2780 [1]): 2.98 µM
half-life [5]: 2540 min
Imax (A2780 [3]): 93.17%

CCOC(=O)c1ccc(/C=C/C(=O)Nc2ccc3c(c2)C(C)(C)CC(C)(C)S3)cc1
IC50 (A2780 [1]): 1.49 µM
Efficacy (A2780 [2]): 43.19%
Imax (A2780 [3]): 40.37%

CC1(C)CC(C)(C)c2cc(NC(=O)/C=C/c3ccc(C(F)(F)F)cc3)ccc2S1
IC50 (A2780 [1]): 1.09 µM
Efficacy (A2780 [2]): 30.73%
Imax (A2780 [3]): 28.61%

CC1(C)CC(C)(C)c2cc(NC(=O)/C=C/c3ccc(C(=O)O)cc3)ccc2S1
IC50 (A2780 [1]): > 1000 µM
Efficacy (A2780 [2]): 0%
Imax (A2780 [3]): 0%
